For 35 molecules, IC50 results are on record in US12492210B2, “Tricyclic compounds and their use” (HUTCHISON MEDIPHARMA LIMITED, priority 2019, dated 2025).

The structures appear in SMILES notation. A value given as a limit tells only on which side of the number the result lay.

What is called IC50 is the point on the concentration scale where inhibition reaches its midpoint.

Assay [1] has as its system p-RSK (Thr359) in colo205 cells. Put plainly: p-RSK (Thr359) Acumen Assay in Colo205. Conditions: Homo sapiens, COLO 205, 1 hour compound incubation, read-out: Example 19 IC50. The class given is cell-based. In outline:
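Colo205 cells (4000/well, seeded overnight in 10% FBS) were exposed 1 hour at 37° C to compound added from a 3–0.001 μM dilution series in 5% DMSO. Cells were then fixed, permeabilised and immunostained for p-RSK Thr359, with PI counterstain. Acumen cytometry gave the percentage of positive cells, normalised to untreated wells and 3 uM GDC0994 wells, for the IC50 fit.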

The next assay deals with T1, MAPK1(ERK2) enzyme (Homo sapiens, UniProt P28482).
T1 construct: purchased Invitrogen PV3313
T1 sequence (P28482 whole entry): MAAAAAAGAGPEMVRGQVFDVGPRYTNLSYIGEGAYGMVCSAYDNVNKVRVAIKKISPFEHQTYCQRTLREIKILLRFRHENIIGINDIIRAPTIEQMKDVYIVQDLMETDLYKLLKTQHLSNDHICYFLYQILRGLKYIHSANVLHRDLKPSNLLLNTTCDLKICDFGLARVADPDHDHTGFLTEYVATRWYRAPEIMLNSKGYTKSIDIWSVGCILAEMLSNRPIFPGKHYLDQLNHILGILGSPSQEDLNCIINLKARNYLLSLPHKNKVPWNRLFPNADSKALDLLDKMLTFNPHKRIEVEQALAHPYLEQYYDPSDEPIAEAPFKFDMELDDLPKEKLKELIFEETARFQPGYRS
In words: Z-Lyte Kinase Assay of ERK2. The class given is biochemical. Conditions: read-out: Example 18 IC50. An outline of the steps: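 FRET-based Z-LYTE assay using ERK2 kinase with Ser/Thr3 peptide; compound tested at 0.00046–1 μM final in 2% DMSO. Kinase reaction ran 1 h at 25-30° C, followed by 1 h development. The coumarin/fluorescein emission ratio (445/520 nm) gave % phosphorylation, and IC50 was fitted from inhibition relative to uninhibited control.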

On to `Cc1cnc(Nc2ccnn2C)nc1-c1cc2n(c1)CCC(C)(C)n1c-2nnc1C1(C(F)(F)F)CC1` [Compound 251], for which the IC50 in assay [1] was no more than 100 nM; at MAPK1(ERK2) enzyme, no more than 5 nM.
The matching figures for `Fc1ccccc1OCc1nnc2n1CCCn1cc(-c3cc(NC4CC4)ncc3C(F)(F)F)cc1-2` [Compound 252]: greater than 100 nM and greater than 10 nM.
`Cn1nccc1Nc1cc(-c2cc3n(c2)CC2(CCC2)n2c(CCC(F)(F)F)nnc2-3)c(Cl)cn1` [Compound 253]: the IC50 in assay [1] was no more than 100 nM; on MAPK1(ERK2) enzyme it was no more than 5 nM.
The matching figures for `Cn1nccc1Nc1cc(-c2cc3n(c2)CC2(CC2)Cn2c(CCC(F)(F)F)nnc2-3)c(Cl)cn1` [Compound 254]: no more than 100 nM and no more than 5 nM.
For `Cn1nccc1Nc1cc(-c2cc3n(c2)CCC2(CC2)n2c(CCC(F)(F)F)nnc2-3)c(Cl)cn1` [Compound 255], the IC50 was greater than 100 nM in assay [1] and no more than 5 nM at MAPK1(ERK2) enzyme.
For `C[C@H]1Cn2cc(-c3cc(Nc4ccnn4C)ncc3Cl)cc2-c2nnc(C3(C(F)(F)F)CCC3)n21` [Compound 256], the IC50 in assay [1] is no more than 100 nM; on MAPK1(ERK2) enzyme it was no more than 5 nM.
The matching figures for `Cn1nccc1Nc1nccc(-c2cn3c(c2Cl)-c2nnc(COc4ccccc4F)n2CCC3)n1` [Compound 257]: no more than 100 nM and 5 to 10 nM.
As for `Cc1cnc(Nc2ccnn2C)cc1-c1cc2n(c1)CC1(CC1)Cn1c-2nnc1C1(C(F)(F)F)CCC1` [Compound 258], the IC50 is no more than 100 nM in assay [1] and no more than 5 nM on MAPK1(ERK2) enzyme.
`Cn1nccc1Nc1cc(-c2cc3n(c2)CC2(CC2)n2c-3nnc2C2(C(F)(F)F)CCC2)c(Cl)cn1` [Compound 259]: the IC50 in assay [1] was no more than 100 nM; on MAPK1(ERK2) enzyme, 5 to 10 nM.
Regarding `Cn1nccc1Nc1cc(-c2cc3n(c2)C(C(F)F)Cn2c-3nnc2C(F)(F)C(F)F)c(Cl)cn1` (stereo not shown) [Compound 260], the values for the IC50 (in assay [1]; at MAPK1(ERK2) enzyme) were greater than 100 nM and 5 to 10 nM, respectively.
The matching figures for `Cn1nccc1Nc1cc(-c2cc3n(c2)CCCCn2c-3nnc2C2(C(F)(F)F)CCC2)c(Cl)cn1` [Compound 261]: no more than 100 nM and greater than 10 nM.
As to `C[C@H]1CCn2cc(-c3cc(Nc4ccnn4C)ncc3Cl)cc2-c2nnc(C3(C(F)(F)F)CCC3)n21` [Compound 262], the results for the half-inhibitory concentration (IC50) (in assay [1]; on MAPK1(ERK2) enzyme) were no more than 100 nM and 5 to 10 nM, respectively.
On to `Cc1cnc(Nc2ccnn2C(F)F)cc1-c1cc2n(c1)CCCn1c-2nnc1C1(C(F)(F)F)CCC1` [Compound 263], for which the IC50 was no more than 100 nM in assay [1] and no more than 5 nM on MAPK1(ERK2) enzyme.
The like results for `Cc1cnc(Nc2ccnn2C)nc1-c1cc2n(c1)CC(F)(F)Cn1c-2nnc1C1(C(F)(F)F)CCC1` [Compound 264] were, in that order, greater than 100 nM and no more than 5 nM.
As to `CC[C@H]1Cn2cc(-c3nc(Nc4ccnn4C)ncc3C)cc2-c2nnc(C(F)(F)c3ccccc3F)n21` [Compound 265], the IC50 in assay [1] was greater than 100 nM; at MAPK1(ERK2) enzyme it was greater than 10 nM.
The like results for `Cn1nccc1Nc1cc(-c2cc3n(c2)CC(F)(F)Cn2c-3nnc2C2(C(F)F)CCC2)c(Cl)cn1` [Compound 266] were, in that order, no more than 100 nM and no more than 5 nM.
As for `Cn1nccc1Nc1cc(-c2cc3n(c2)[C@H]2CC[C@H](C2)n2c-3nnc2C2(C(F)(F)F)CCC2)c(Cl)cn1` [Compound 267], the IC50 in assay [1] was greater than 100 nM; at MAPK1(ERK2) enzyme, greater than 10 nM.
As for `Cn1nccc1Nc1cc(-c2cc3n(c2)CC2(CC2)Cn2c-3nnc2C2(C(F)(F)F)CCC2)c(Cl)cn1` [Compound 268], the IC50 in assay [1] is no more than 100 nM; on MAPK1(ERK2) enzyme, no more than 5 nM.
The like results for `COc1cc(Nc2cc(-c3cc4n(c3)CCCn3c-4nnc3C3(C(F)(F)F)CCC3)c(Cl)cn2)n(C)n1` [Compound 269] were, in that order, greater than 100 nM and 5 to 10 nM.
Consider `Cn1nccc1Nc1cc(-c2cc3n(c2)C(C(F)(F)F)Cn2c-3nnc2C(F)(F)C(F)F)c(Cl)cn1` (stereo not shown) [Compound 270], for which the IC50 in assay [1] was no more than 100 nM; at MAPK1(ERK2) enzyme it was greater than 10 nM.
For `Cn1nccc1Nc1cc(-c2cc3n(c2)CCCn2c-3nnc2C2(C(F)(F)F)CCC2)c(C(F)(F)F)cn1` [Compound 271], the results for the IC50 (in assay [1]; on MAPK1(ERK2) enzyme) were no more than 100 nM and 5 to 10 nM, respectively.
Take `Cn1nccc1Nc1cc(-c2cc3n(c2)CCCn2c(COc4ccccc4F)nnc2-3)c(C(F)(F)F)cn1` [Compound 272]: the IC50 in assay [1] is no more than 100 nM; on MAPK1(ERK2) enzyme, greater than 10 nM.
The matching figures for `Cn1nccc1Nc1nccc(-c2cc3n(c2)C[C@H](C(F)(F)F)n2c-3nnc2C(F)(F)c2ccccc2F)n1` [Compound 273]: greater than 100 nM and 5 to 10 nM.
The like results for `FC[C@H]1Cn2cc(-c3cc(NN4CCOCC4)ncc3Cl)cc2-c2nnc(C(F)(F)c3ccccc3F)n21` [Compound 274] were, in that order, no more than 100 nM and greater than 10 nM.
The matching figures for `Cc1cnc(N[C@@H](C)CO)nc1-c1cc2n(c1)CCCn1c-2nnc1C1(C(F)(F)F)CCC1` [Compound 275, (S)-2-((5-methyl-4-(3-(1-(trifluoromethyl)cyclobutyl)-6,7-dihydro-5H-pyrrolo[1,2-a][1,2,4]triazolo[3,4-c][1,4]diazepin-10-yl)pyrimidin-2-yl)amino)propan-1-ol]: no more than 100 nM and no more than 5 nM.
On to `C[C@@H](CO)Nc1ncc(Cl)c(-c2cc3n(c2)CCCn2c-3nnc2C2(C(F)(F)F)CCC2)n1` [Compound 276], for which the IC50 is no more than 100 nM in assay [1] and no more than 5 nM on MAPK1(ERK2) enzyme.
The like results for `Cc1cnc(NC2CCOCC2)nc1-c1cc2n(c1)CCCn1c-2nnc1C1(C(F)(F)F)CCC1` [Compound 277] were, in that order, no more than 100 nM and no more than 5 nM.
The matching figures for `Cc1cnc(NC2CC(F)(F)C2)nc1-c1cc2n(c1)CCCn1c-2nnc1C1(C(F)(F)F)CCC1` [Compound 278]: greater than 100 nM and no more than 5 nM.
The like results for `Cc1cnc(NC2CCc3ncnn3C2)nc1-c1cc2n(c1)C[C@H](C)n1c-2nnc1C(F)(F)c1ccccc1F` (stereo partly shown) [Compound 280] were, in that order, greater than 100 nM and 5 to 10 nM.
With `Cc1cc(Nc2ncc(C)c(-c3cc4n(c3)CCCn3c-4nnc3C3(C(F)(F)F)CCC3)n2)ccn1` [Compound 281, 5-methyl-N-(2-methylpyridin-4-yl)-4-(3-(1-(trifluoromethyl)cyclobutyl)-6,7-dihydro-5H-pyrrolo[1,2-a][1,2,4]triazolo[3,4-c][1,4]diazepin-10-yl)pyrimidin-2-amine], the values for the half-maximal inhibitory concentration (IC50) (in assay [1]; on MAPK1(ERK2) enzyme) were no more than 100 nM and no more than 5 nM, respectively.
In the case of `Cn1nccc1Nc1nccc(-c2cc3c4nnc(Cc5cccc(F)c5)n4ccn3c2)n1` [Compound 282], the IC50 in assay [1] is greater than 100 nM; on MAPK1(ERK2) enzyme it was no more than 5 nM.
Take `Cc1cnc(Nc2ccnn2C)nc1-c1cc2c3nnc(Cc4cccc(F)c4)n3ccn2c1` [Compound 283]: the IC50 in assay [1] was no more than 100 nM; at MAPK1(ERK2) enzyme it was no more than 5 nM.
In the case of `Cc1cc(Nc2ncc(C)c(-c3cc4n(c3)CCCn3c-4nnc3C3(C(F)(F)F)CCC3)n2)on1` [Compound 284], the IC50 was greater than 100 nM in assay [1] and no more than 5 nM on MAPK1(ERK2) enzyme.
The like results for `Cn1nccc1Nc1ncc(F)c(-c2cc3n(c2)CCCn2c-3nnc2C2(C(F)(F)F)CCC2)n1` [Compound 285] were, in that order, greater than 100 nM and no more than 5 nM.
With `Cc1cnccc1Nc1ncc(C)c(-c2cc3n(c2)CCCn2c-3nnc2C2(C(F)(F)F)CCC2)n1` [Compound 286], the figures for the IC50 (in assay [1]; on MAPK1(ERK2) enzyme) were no more than 100 nM and 5 to 10 nM, respectively.
